The record followed here is ChEMBL document CHEMBL4406821, “Novel dual inhibitors targeting CDK4 and VEGFR2 synergistically suppressed cancer progression and angiogenesis” (Eur J Med Chem, 2019).

The target of series [1] is Receptor-interacting serine/threonine-protein kinase 2 (Homo sapiens) (UniProt O43353). The series can be described thus: Inhibition of recombinant human RIPK2 (1 to 299 residues) at 1 uM using myelin basic protein as substrate incubated for 40 mins in presence of [gamma-33P]-ATP by scintillation counting method relative to control.
Chain of Receptor-interacting serine/threonine-protein kinase 2 (Homo sapiens) (O43353 whole entry, the tested form may be a part): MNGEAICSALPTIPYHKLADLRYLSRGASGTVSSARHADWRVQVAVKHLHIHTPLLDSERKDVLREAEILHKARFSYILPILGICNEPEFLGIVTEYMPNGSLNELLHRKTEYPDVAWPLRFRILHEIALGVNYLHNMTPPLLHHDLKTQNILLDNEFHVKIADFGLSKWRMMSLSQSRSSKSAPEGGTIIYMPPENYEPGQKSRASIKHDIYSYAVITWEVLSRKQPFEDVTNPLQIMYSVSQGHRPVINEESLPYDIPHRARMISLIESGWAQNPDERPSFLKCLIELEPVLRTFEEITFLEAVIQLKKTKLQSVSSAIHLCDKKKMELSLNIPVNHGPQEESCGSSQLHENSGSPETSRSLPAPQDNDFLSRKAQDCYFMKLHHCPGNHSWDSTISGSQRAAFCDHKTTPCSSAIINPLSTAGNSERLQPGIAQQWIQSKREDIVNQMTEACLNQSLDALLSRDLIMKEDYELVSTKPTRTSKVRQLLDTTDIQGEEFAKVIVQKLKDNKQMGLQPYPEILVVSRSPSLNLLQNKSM
Series [2] has as its target Tyrosine-protein kinase receptor TYRO3 (Homo sapiens) (UniProt Q06418). The series can be described thus: Inhibition of recombinant human RSE (451 to end residues) at 1 uM using KVEKIGEGTYGVVYK as substrate incubated for 40 mins in presence of [gamma-33P]-ATP by scintillation counting method relative to control.
For series [3], the system named is Angiopoietin-1 receptor (Homo sapiens), Q02763 [R849W]. The series can be described thus: Inhibition of recombinant human TIE2 R849W mutant (771 to end residues) at 1 uM using EFPIYDFLPAKKK as substrate incubated for 40 mins in presence of [gamma-33P]-ATP by scintillation counting method relative to control.
Chain of Angiopoietin-1 receptor (Homo sapiens), Q02763 [R849W] (Q02763 whole entry R849W): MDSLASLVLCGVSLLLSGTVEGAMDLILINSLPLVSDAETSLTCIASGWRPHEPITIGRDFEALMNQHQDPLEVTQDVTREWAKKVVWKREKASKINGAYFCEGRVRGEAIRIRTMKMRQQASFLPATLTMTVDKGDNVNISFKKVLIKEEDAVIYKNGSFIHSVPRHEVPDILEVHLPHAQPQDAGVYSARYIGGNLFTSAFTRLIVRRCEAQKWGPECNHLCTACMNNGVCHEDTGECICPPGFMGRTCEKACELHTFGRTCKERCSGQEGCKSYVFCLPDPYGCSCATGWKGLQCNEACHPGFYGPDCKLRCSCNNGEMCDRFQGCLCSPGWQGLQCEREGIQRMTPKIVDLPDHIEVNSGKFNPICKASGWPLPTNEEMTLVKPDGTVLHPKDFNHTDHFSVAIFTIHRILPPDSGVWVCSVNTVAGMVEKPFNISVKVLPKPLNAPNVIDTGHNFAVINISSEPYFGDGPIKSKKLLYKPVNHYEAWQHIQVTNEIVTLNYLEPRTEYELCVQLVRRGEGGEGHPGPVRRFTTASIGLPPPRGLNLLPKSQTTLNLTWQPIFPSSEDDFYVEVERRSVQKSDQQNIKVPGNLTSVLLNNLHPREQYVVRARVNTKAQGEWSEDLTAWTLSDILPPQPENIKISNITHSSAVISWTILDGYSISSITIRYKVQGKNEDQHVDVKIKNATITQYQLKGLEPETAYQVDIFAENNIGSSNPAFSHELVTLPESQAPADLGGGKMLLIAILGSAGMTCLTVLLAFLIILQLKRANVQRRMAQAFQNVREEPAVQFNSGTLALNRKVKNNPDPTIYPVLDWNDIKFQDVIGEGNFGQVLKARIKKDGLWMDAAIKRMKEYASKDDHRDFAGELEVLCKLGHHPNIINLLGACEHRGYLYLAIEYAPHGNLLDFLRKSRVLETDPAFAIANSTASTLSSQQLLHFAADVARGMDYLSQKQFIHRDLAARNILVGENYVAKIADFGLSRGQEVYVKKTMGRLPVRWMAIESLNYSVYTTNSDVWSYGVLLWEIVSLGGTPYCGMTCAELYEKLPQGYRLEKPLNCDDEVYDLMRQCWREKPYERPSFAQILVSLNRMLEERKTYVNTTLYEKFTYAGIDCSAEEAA
The nature of series [4]: Toxicity in BALB/c mouse assessed as effect on blood parameter by measuring eosinophils content at 40 mg/kg, po administered once two days for 4 times by hematology analyzer. To be noted: in vivo.

As usually defined, the inhibition is the relative decrease from the control value, in per cent.

Chain of Tyrosine-protein kinase receptor TYRO3 (Homo sapiens) (Q06418 whole entry): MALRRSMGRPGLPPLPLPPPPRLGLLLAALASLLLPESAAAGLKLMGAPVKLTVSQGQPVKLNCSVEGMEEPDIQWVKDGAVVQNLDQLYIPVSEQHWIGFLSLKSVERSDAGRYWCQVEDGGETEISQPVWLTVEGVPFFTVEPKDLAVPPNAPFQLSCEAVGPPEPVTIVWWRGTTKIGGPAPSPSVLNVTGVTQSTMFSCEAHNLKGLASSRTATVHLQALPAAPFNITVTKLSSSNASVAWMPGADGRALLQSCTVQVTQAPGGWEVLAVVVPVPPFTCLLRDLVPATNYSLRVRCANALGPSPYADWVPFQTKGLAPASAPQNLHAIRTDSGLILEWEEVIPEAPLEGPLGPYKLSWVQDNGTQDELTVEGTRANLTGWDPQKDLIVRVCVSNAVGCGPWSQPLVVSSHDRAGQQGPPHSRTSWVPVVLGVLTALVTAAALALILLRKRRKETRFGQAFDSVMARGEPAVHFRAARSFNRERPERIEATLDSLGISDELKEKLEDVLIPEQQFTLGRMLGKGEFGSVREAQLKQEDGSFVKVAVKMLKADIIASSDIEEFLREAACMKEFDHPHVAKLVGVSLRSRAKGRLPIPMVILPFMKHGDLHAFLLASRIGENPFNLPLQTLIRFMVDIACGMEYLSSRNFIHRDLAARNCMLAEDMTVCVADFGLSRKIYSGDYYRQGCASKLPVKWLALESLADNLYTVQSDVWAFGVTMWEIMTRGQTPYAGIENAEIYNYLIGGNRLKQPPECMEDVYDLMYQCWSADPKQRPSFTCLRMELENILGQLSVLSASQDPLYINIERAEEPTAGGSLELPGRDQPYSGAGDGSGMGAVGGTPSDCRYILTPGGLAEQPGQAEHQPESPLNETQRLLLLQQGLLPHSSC

For the compound `Cc1ccc(NC(=O)C2(C(=O)Nc3ccc(Nc4ncc(F)c(-c5cc(F)c6nc(C)n(C(C)C)c6c5)n4)cc3)CC2)cc1`, the figures for the inhibition in series [1], in series [2] and in series [3] were 46%, 66% and 57%, respectively. Besides, the Activity result in series [4] is recorded as “Non-Toxic”.
